# Measured values published in patent publication US9266904B2, “6-bridged heteroaryldihydropyrimidines for the treatment and prophylaxis of hepatitis B virus infection” (priority 2013, dated 2016).
# pEC50: −log10 of the molar value. Read-outs that look alike come from different tables or passages of the source.
# Legend:
# [1] = system: HepDE19 cells; test: Cytotoxicity (CCK-8 cell viability) and selectivity index; assay type: cell-based, human; settings: CC50 value/EC50 value
# Excerpt: (§1) HepG2.2.15 and HepDE19 are stably-transfected cell lines containing the HBV genome. Both cell lines are derived from the hepatoblastoma cell line Hep G2 (American Type Culture Collection, ATCC® HB-8065™) by the published procedures described in references: M A Selles et al. Proc. Natl. Acad. Sci. USA 1987, 84, 1005-1009 and H Guo et al. Journal of Virology 2007, 81, 12472-12484, respectively. Both cell lines were maintained in Dulbecco's modified Eagle's medium (DMEM)-F12 medium supplemented with 10% fetal bovine serum, 100 U/mL penicillin, 100 μg/mL streptomycin, and 0.5 mg/mL of G418.
# (§2) In a cell culture model, apparent antiviral activity of a compound can be the result of host cell death after exposure to the compound. To determine whether the anti-HBV effect of a test compound is due to cytotoxicity, HepDE19 cells were seeded into 96-well plates (5×10^3 cells per well) and treated with compounds as described above for EC50 determination. Five days after treatment, cell viability was measured by addition of 20 μL of CCK-8 reagent. Two hours after incubation at 37° C., the absorbance at wavelengths of 450 nm and 630 nm (OD450 and OD630) was recorded by a plate reader. The concentration results in the death of 50% of the host cells (CC50) of each compound was determined (See Table 5).
# [2] = as above; assay type: cell-based, human; settings: human, HepDE19 cells; cytotoxicity, concentration resulting in death of 50% of host cells
# Excerpt: as §1, §2
# [3] = Human microsomal clearance assay; assay type: in vitro ADME; settings: human, 1 μM, pH 7.4
# How it was run: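 Liver microsomes (0.5 mg/mL protein) were incubated with 1 μM compound at 37 °C, pH 7.4 phosphate, with an NADPH-regenerating system. Samples at 0-30 min were quenched and measured by LC-MS/MS for parent loss. No-NADPH controls were included.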
# [4] = system: HBV replication in HepG2.2.15 cells; test: Anti-HBV activity in vitro in HepG2.2.15 cells (extracellular HBV DNA by qPCR); assay type: cell-based; settings: Hepatitis B virus
# How it was run: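 EC50 is derived from qPCR of extracellular viral DNA in culture supernatant after 5-day compound exposure. Cells (HepG2.2.15, stably carrying the HBV genome) were plated and incubated overnight at 37 °C before half-log dilution series were added at 0.5% final DMSO.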
# [5] = HepG2.2.15, Anti-HBV activity in HepG2.2.15 cells, read-out: EC50
Compound,Selectivity index (CC50/EC50) [1],CC50 at 5 days [2] [µM],CLh [3] [mL/min/kg],"pEC50 [4, 5]",pEC50 ([4]; HepG2.2.15)
"COC(=O)C1=C(CN2C3COCC2CN(S(C)(=O)=O)C3)NC(c2nccs2)=N[C@H]1c1ccc(F)cc1Cl [Example 11, (R)-4-(2-Chloro-4-fluoro-phenyl)-6-(7-methanesulfonyl-3-oxa-7,9-diaza-bicyclo[3.3.1]non-9-ylmethyl)-2-thiazol-2-yl-1,4-dihydro-pyrimidine-5-carboxylic acid methyl ester]",>15152,> 100,9.0,8.18,
"COC(=O)C1=C(CN2C3COCC2CN(S(N)(=O)=O)C3)NC(c2nccs2)=N[C@H]1c1ccc(F)cc1Cl [Example 19, (R)-4-(2-Chloro-4-fluoro-phenyl)-6-(7-sulfamoyl-3-oxa-7,9-diaza-bicyclo[3.3.1]non-9-ylmethyl)-2-thiazol-2-yl-1,4-dihydro-pyrimidine-5-carboxylic acid methyl ester]",16571,58,4.6,8.40,
"COC(=O)C1=C(CN2C3COCC2CC(NS(C)(=O)=O)C3)NC(c2nccs2)=N[C@H]1c1ccc(F)cc1Cl (stereo partly drawn) [Example 36, (R)-4-(2-Chloro-4-fluoro-phenyl)-6-(7-methanesulfonylamino-3-oxa-9-aza-bicyclo[3.3.1]non-9-ylmethyl)-2-thiazol-2-yl-1,4-dihydro-pyrimidine-5-carboxylic acid methyl ester]",11875,38,7.8,8.52,
"COC(=O)C1=C(CN2[C@@H]3COC[C@H]2CC2(C3)N=N2)NC(c2nccs2)=N[C@H]1c1ccc(F)cc1Cl [Example 43, (R)-6-(7-Diazirine-3-oxa-9-aza-bicyclo[3.3.1]non-9-ylmethyl)-4-(2-chloro-4-fluoro-phenyl)-2-thiazol-2-yl-1,4-dihydro-pyrimidine-5-carboxylic acid methyl ester]",14845,43,,8.52,
"COC(=O)C1=C(CN2C3COCC2c2[nH]ncc23)NC(c2nccs2)=N[C@H]1c1ccc(F)cc1Cl (stereo partly drawn) [Example 45, (R)-4-(2-Chloro-4-fluoro-phenyl)-6-(9-oxa-3,4,11-triaza-tricyclo[5.3.1.0*2,6*]undeca-2(6),4-dien-11-ylmethyl)-2-thiazol-2-yl-1,4-dihydro-pyrimidine-5-carboxylic acid methyl ester]",85280,43,,9.30,
"COC(=O)C1=C(CN2[C@@H]3COC[C@H]2C[C@H](NS(C)(=O)=O)C3)NC(c2nccs2)=N[C@H]1c1ccc(F)cc1Cl [Example 60, Methyl (4R)-4-(2-chloro-4-fluoro-phenyl)-6-[[(1R,5S)-7-exo-(methanesulfonamido)-3-oxa-9-azabicyclo[3.3.1]nonan-9-yl]methyl]-2-thiazol-2-yl-1,4-dihydropyrimidine-5-carboxylate]",21169,34,6.4,8.80,
"COC(=O)C1=C(CN2[C@@H]3COC[C@H]2C[C@H](NC(C)=O)C3)NC(c2nccs2)=N[C@H]1c1ccc(F)cc1Cl [Example 61, Methyl (4R)-6-[[(1S,5R)-7-exo-acetamido-3-oxa-9-azabicyclo[3.3.1]nonan-9-yl]methyl]-4-(2-chloro-4-fluoro-phenyl)-2-thiazol-2-yl-1,4-dihydropyrimidine-5-carboxylate]",10942,53,6.3,8.32,
"CCOC(=O)C1=C(CN2[C@@H]3COC[C@H]2C[C@@H](NC(C)=O)C3)NC(c2nccs2)=N[C@H]1c1ccc(F)cc1Br [Example 70, Ethyl (4R)-6-[[(1S,5R)-7-endo-acetamido-3-oxa-9-azabicyclo[3.3.1]nonan-9-yl]methyl]-4-(2-bromo-4-fluoro-phenyl)-2-thiazol-2-yl-1,4-dihydropyrimidine-5-carboxylate]",7268,60,,8.09,
"CCOC(=O)C1=C(CN2[C@@H]3COC[C@H]2C[C@H](NC(C)=O)C3)NC(c2nccs2)=N[C@H]1c1ccc(F)cc1Br [Example 71, Ethyl (4R)-6-[[(1S,5R)-7-exo-acetamido-3-oxa-9-azabicyclo[3.3.1]nonan-9-yl]methyl]-4-(2-bromo-4-fluoro-phenyl)-2-thiazol-2-yl-1,4-dihydropyrimidine-5-carboxylate]",14690,44,,8.52,
"COC(=O)C1=C(CN2C3COCC2c2conc2C3)NC(c2nccs2)=N[C@H]1c1ccc(F)cc1Cl (stereo partly drawn) [Example 104, (4R)-4-(2-Chloro-4-fluoro-phenyl)-6-(4,10-dioxa-5,12-diaza-tricyclo[6.3.1.0*2,6*]dodeca-2,5-dien-12-ylmethyl)-2-thiazol-2-yl-1,4-dihydro-pyrimidine-5-carboxylic acid methyl ester]",9079,44,,8.32,
"COC(=O)C1=C(CN2C3COCC2c2cnoc2C3)NC(c2nccs2)=N[C@H]1c1ccc(F)cc1Cl (stereo partly drawn) [Example 105, (4R)-4-(2-Chloro-4-fluoro-phenyl)-6-(5,10-dioxa-4,12-diaza-tricyclo[6.3.1.0*2,6*]dodeca-2(6),3-dien-12-ylmethyl)-2-thiazol-2-yl-1,4-dihydro-pyrimidine-5-carboxylic acid methyl ester]",12041,33,,8.57,
"COC(=O)C1=C(CN2C3COCC2C(F)(F)c2[nH]ncc23)NC(c2nccs2)=N[C@H]1c1ccc(F)cc1Cl (stereo partly drawn) [Example 107, (R)-4-(2-Chloro-4-fluoro-phenyl)-6-(7,7-difluoro-10-oxa-4,5,12-triaza-tricyclo[6.3.1.0*2,6*]dodeca-2(6),3-dien-12-ylmethyl)-2-thiazol-2-yl-1,4-dihydro-pyrimidine-5-arboxylic acid methyl ester]",12495,26,,8.68,
"COC(=O)C1=C(CN2C3COCC2C(F)(F)C3)NC(c2nccs2)=N[C@H]1c1ccc(F)cc1Cl (stereo partly drawn) [Example 108, Methyl (4R)-4-(2-chloro-4-fluorophenyl)-6-[(6,6-difluoro-3-oxa-8-azabicyclo[3.2.1]octan-8-yl)methyl]-2-(1,3-thiazol-2-yl)-1,4-dihydropyrimidine-5-carboxylate]",9953,74,,8.13,
"CCOC(=O)C(O)C1(O)CC2COCC(C1)N2CC1=C(C(=O)OC)[C@H](c2ccc(F)cc2Cl)N=C(c2nccs2)N1 (stereo partly drawn) [Example 137, Methyl (4R)-4-(2-chloro-4-fluoro-phenyl)-6-[[7-(2-ethoxy-1-hydroxy-2-oxo-ethyl)-7-hydroxy-3-oxa-9-azabicyclo[3.3.1]nonan-9-yl]methyl]-2-thiazol-2-yl-1,4-dihydropyrimidine-5-carboxylate]",17031,55,,8.49,
"CCOC(=O)CC1(NS(C)(=O)=O)CC2COCC(C1)N2CC1=C(C(=O)OC)[C@H](c2ccc(F)cc2Cl)N=C(c2nccs2)N1 (stereo partly drawn) [Example 146, Methyl (4R)-4-(2-chloro-4-fluoro-phenyl)-6-[[7-(2-ethoxy-2-oxo-ethyl)-7-(methanesulfonamido)-3-oxa-9-azabicyclo[3.3.1]nonan-9-yl]methyl]-2-thiazol-2-yl-1,4-dihydropyrimidine-5-carboxylate]",>200000,> 100,,9.30,
"CCOC(=O)CC1(NC(=O)C(F)(F)F)CC2COCC(C1)N2CC1=C(C(=O)OC)[C@H](c2ccc(F)cc2Cl)N=C(c2nccs2)N1 (stereo partly drawn) [Example 147, Methyl (4R)-4-(2-chloro-4-fluoro-phenyl)-6-[[7-(2-ethoxy-2-oxo-ethyl)-7-[(2,2,2-trifluoroacetyl)amino]-3-oxa-9-azabicyclo[3.3.1]nonan-9-yl]methyl]-2-thiazol-2-yl-1,4-dihydropyrimidine-5-carboxylate]",>111111,> 100,,,9.05
"COC(=O)C1=C(CN2C3CC(F)(F)C2C[C@H]3C(=O)O)NC(c2nccs2)=N[C@H]1c1ccc(F)cc1Cl (stereo partly drawn) [Example 152, (5R)-7-[[(4R)-4-(2-chloro-4-fluoro-phenyl)-5-methoxycarbonyl-2-thiazol-2-yl-1,4-dihydropyrimidin-6-yl]methyl]-2,2-difluoro-7-azabicyclo[2.2.1]heptane-5-carboxylic acid]",>5650,> 100,,7.75,
